For 33 compounds, MIC results are on record in patent US9060515B2, “Heterocyclic urea compounds” (BIOTA EUROPE LTD, priority 2011, dated 2015).

≈ marks a conversion by molar mass, not a printed value.

One assay deals with S. pyogenes (ATCC 51339). Briefly: Antibacterial susceptibility testing (MIC, broth microdilution or agar dilution), S. pyogenes. In kind it is cell-based. To be noted: Streptococcus pyogenes, ATCC51339; read-out: S. pyogenes (ATCC 51339) minimal inhibitory concentration (MIC). On the procedure:
(§1) Compounds of the invention were tested for antimicrobial activity by susceptibility testing in liquid or on solid media. MICs for compounds against each strain were determined by the broth microdilution or agar dilution method according to the guidelines of the Clinical Laboratories and Standards Institute, formerly the National Committee for Clinical Laboratory Standards (Clinical Laboratories and Standards Institute. Methods for Dilution Antimicrobial Susceptibility Tests for Bacteria That Grow Aerobically; Approved Standard—Seventh Edition. Document M7-A7. CLSI, Wayne, Pa., 2006; Clinical Laboratories and Standards Institute. The Gram positive bacterial strains tested include S. aureus (Staphylococcus aureus (Isolate ID ATCC 29213)), E. faecalis (Enterococcus faecalis (Isolate ID ATCC 29212)) and S. pyogenes (Streptococcus pyogenes (Isolate ID ATCC 51339)). The Gram negative bacterial strains tested include H. influenzae (Haemophilus influenzae (Isolate ID ATCC 49247)).

In a further assay the test system is S. aureus (ATCC 29213). Description: Antibacterial susceptibility testing (MIC, broth microdilution or agar dilution), S. aureus. In kind it is cell-based. To be noted: Staphylococcus aureus, ATCC29213; read-out: S. aureus (ATCC 29213) minimal inhibitory concentration (MIC). On the procedure: as §1
(In general: In broth dilution the organism is exposed to a series of concentrations in liquid medium.)

In the case of `CCNC(=O)Nc1cc(Nc2ccccc2)c(C(=O)Nc2ccc(CCC(C)=O)cc2)cn1` [Compound 122, 6-(3-Ethylureido)-N-(4-(3-oxobutyl)phenyl)-4-(phenylamino)nicotinamide], the MIC in the assay with S. pyogenes (ATCC 51339) and in the assay on S. aureus (ATCC 29213) was not above 1 µg/mL each time.

As to `CCNC(=O)Nc1cc(Nc2ccccc2)c(C(=O)Nc2cncc(F)c2)cn1` [Compound 85, 6-(3-ethylureido)-N-(5-fluoropyridin-3-yl)-4-(phenylamino)nicotinamide], the MIC with S. pyogenes (ATCC 51339) and in the assay on S. aureus (ATCC 29213) was not above 1 µg/mL throughout.

On to `CCNC(=O)Nc1cc(Nc2ccccc2)c(C(=O)Nc2ccc(N3CCC(O)CC3)nc2)cn1` [Compound 100, 6-(3-ethylureido)-N-(6-(4-hydroxypiperidin-1-yl)pyridin-3-yl)-4-(phenylamino)nicotinamide], for which the MIC with S. pyogenes (ATCC 51339) is not above 1 µg/mL; in the assay with S. aureus (ATCC 29213), 2 µg/mL (≈ 4.21 µM).

Take `CCNC(=O)Nc1cc(Nc2ccccc2)c(C(=O)Nc2ccc(F)c(F)c2)cn1` [Compound 69, N-(3,4-difluorophenyl)-6-(3-ethylureido)-4-(phenylamino)nicotinamide]: the MIC in the assay with S. pyogenes (ATCC 51339) is 4 µg/mL (≈ 9.72 µM); with S. aureus (ATCC 29213), not above 1 µg/mL.

For `CCNC(=O)Nc1cc(Nc2ccccc2)c(C(=O)Nc2ccc(CC(C)(C)C(=O)OC)cc2)cn1` [Compound 129], the values for the MIC in the assay on S. pyogenes (ATCC 51339) and in the assay with S. aureus (ATCC 29213) were not above 1 µg/mL and 2 µg/mL (≈ 4.09 µM), respectively.

Consider `CCNC(=O)Nc1cc(Nc2ccc(Cl)cc2)c(C(=O)Nc2cccnc2)cn1` [Compound 106, 4-(4-chlorophenylamino)-6-(3-ethylureido)-N-(pyridin-3-yl)nicotinamide], for which the MIC in the assay on S. pyogenes (ATCC 51339) and in the assay with S. aureus (ATCC 29213) was not above 1 µg/mL each time.

On to `CCNC(=O)Nc1cc(Nc2ccc(CCC(=O)OCC)cc2)c(C(=O)Nc2cccnc2)cn1` [Compound 131, ethyl 3-(4-(2-(3-ethylureido)-5-(pyridin-3-ylcarbamoyl)pyridin-4-ylamino)phenyl)propanoate], for which the MIC came to 4 µg/mL (≈ 8.39 µM) in the assay with S. pyogenes (ATCC 51339) and 8 µg/mL (≈ 16.8 µM) in the assay on S. aureus (ATCC 29213).

Turning to `CCNC(=O)Nc1cc(Nc2cnn(C)c2)c(C(=O)Nc2cccnc2)cn1` [Compound 113, 6-(3-ethylureido)-4-(1-methyl-1H-pyrazol-4-ylamino)-N-(pyridin-3-yl)nicotinamide], the values for the MIC with S. pyogenes (ATCC 51339) and in the assay on S. aureus (ATCC 29213) were 4 µg/mL (≈ 10.5 µM) and 32 µg/mL (≈ 84.1 µM), respectively.

Regarding `CCNC(=O)Nc1cc(Nc2ccccc2)c(C(=O)Nc2ccc(OC)cc2)cn1` [Compound 33, 6-(3-ethylureido)-N-(4-methoxyphenyl)-4-(phenylamino)nicotinamide], the MIC in the assay with S. pyogenes (ATCC 51339) came out at 16 µg/mL (≈ 39.5 µM); with S. aureus (ATCC 29213) it was 4 µg/mL (≈ 9.87 µM).

With `CCNC(=O)Nc1cc(Nc2ccccc2)c(C(=O)Nc2ccc(CCCO)cc2)cn1` [Compound 117, 6-(3-ethylureido)-N-(4-(3-hydroxypropyl)phenyl)-4-(phenylamino)nicotinamide], the MIC in the assay on S. pyogenes (ATCC 51339) and with S. aureus (ATCC 29213) was not above 1 µg/mL in each case.

Turning to `CCNC(=O)Nc1cc(Nc2ccccc2)c(C(=O)Nc2cncnc2)cn1` [Compound 60, 6-(3-ethylureido)-4-(phenylamino)-N-(pyrimidin-5-yl)nicotinamide], the figures for the MIC in the assay on S. pyogenes (ATCC 51339) and in the assay with S. aureus (ATCC 29213) were not above 1 µg/mL and 4 µg/mL (≈ 10.6 µM), respectively.

For `CCNC(=O)Nc1cc(Nc2ccccc2)c(C(=O)Nc2ccnn2C)cn1` [Compound 10, 6-(3-Ethylureido)-N-(1-methyl-1H-pyrazol-5-yl)-4-(phenylamino)nicotinamide], the values for the MIC in the assay on S. pyogenes (ATCC 51339) and in the assay on S. aureus (ATCC 29213) were 2 µg/mL (≈ 5.27 µM) and 16 µg/mL (≈ 42.2 µM), respectively.

Turning to `CCNC(=O)Nc1cc(Nc2ccccc2)c(C(=O)Nc2cnc3c(c2)ncn3C)cn1` [Compound 88, 6-(3-ethylureido)-N-(3-methyl-3H-imidazo[4,5-b]pyridin-6-yl)-4-(phenylamino)nicotinamide], the MIC in the assay on S. pyogenes (ATCC 51339) was not above 1 µg/mL; with S. aureus (ATCC 29213) it was 2 µg/mL (≈ 4.65 µM).

In the case of `CCNC(=O)Nc1cc(Nc2ccccc2)c(C(=O)Nc2ccc(Oc3ccc(F)cc3)nc2)cn1` [Compound 82], the MIC is 8 µg/mL (≈ 16.4 µM) in the assay on S. pyogenes (ATCC 51339) and 2 µg/mL (≈ 4.11 µM) in the assay with S. aureus (ATCC 29213).

Consider `CCNC(=O)Nc1cc(Nc2ccccc2)c(C(=O)Nc2ccc(Cl)cc2)cn1` [Compound 34, N-(4-chlorophenyl)-6-(3-ethylureido)-4-(phenylamino)nicotinamide], for which the MIC in the assay with S. pyogenes (ATCC 51339) amounted to 32 µg/mL (≈ 78.1 µM); with S. aureus (ATCC 29213), 4 µg/mL (≈ 9.76 µM).

Turning to `CCNC(=O)Nc1cc(Nc2ccccc2)c(C(=O)Nc2ccc3nccn3c2)cn1` [Compound 76, 6-(3-ethylureido)-N-(imidazo[1,2-a]pyridin-6-yl)-4-(phenylamino)nicotinamide], the MIC with S. pyogenes (ATCC 51339) was not above 1 µg/mL; in the assay with S. aureus (ATCC 29213) it was 2 µg/mL (≈ 4.81 µM).

Consider `CCNC(=O)Nc1cc(Nc2ccccc2)c(C(=O)Nc2cc(C(=O)OC)n(C)c2)cn1` [Compound 86, methyl 4-(6-(3-ethylureido)-4-(phenylamino)nicotinamido)-1-methyl-1H-pyrrole-2-carboxylate], for which the MIC in the assay on S. pyogenes (ATCC 51339) and in the assay on S. aureus (ATCC 29213) was not above 1 µg/mL throughout.

In the case of `CCNC(=O)Nc1cc(Nc2ccccc2)c(C(=O)Nc2ccc(F)cc2)cn1` [Compound 55, 6-(3-ethylureido)-N-(4-fluorophenyl)-4-(phenylamino)nicotinamide], the MIC with S. pyogenes (ATCC 51339) is 4 µg/mL (≈ 10.2 µM); in the assay on S. aureus (ATCC 29213), not above 1 µg/mL.

For the compound `CCNC(=O)Nc1cc(Nc2cccc(OC)c2)c(C(=O)Nc2cccnc2)cn1` [Compound 111, 6-(3-ethylureido)-4-(3-methoxyphenylamino)-N-(pyridin-3-yl)nicotinamide], the MIC in the assay with S. pyogenes (ATCC 51339) and in the assay with S. aureus (ATCC 29213) was not above 1 µg/mL each time.

Regarding `CCNC(=O)Nc1cc(Nc2ccccc2)c(C(=O)Nc2ccn(C)n2)cn1` [Compound 59, 6-(3-ethylureido)-N-(1-methyl-1H-pyrazol-3-yl)-4-(phenylamino)nicotinamide], the MIC with S. pyogenes (ATCC 51339) came out at 2 µg/mL (≈ 5.27 µM); with S. aureus (ATCC 29213) it was 8 µg/mL (≈ 21.1 µM).

For `CCNC(=O)Nc1cc(Nc2cccc(Cl)c2)c(C(=O)Nc2cccnc2)cn1` [Compound 107, 4-(3-chlorophenylamino)-6-(3-ethylureido)-N-(pyridin-3-yl)nicotinamide], the MIC is 2 µg/mL (≈ 4.87 µM) in the assay on S. pyogenes (ATCC 51339) and not above 1 µg/mL with S. aureus (ATCC 29213).

Turning to `CCNC(=O)Nc1cc(Nc2ccccc2)c(C(=O)Nc2ccc(NC(C)C)nc2)cn1` [Compound 95, 6-(3-ethylureido)-N-(6-(isopropylamino)pyridin-3-yl)-4-(phenylamino)nicotinamide], the MIC was not above 1 µg/mL in the assay on S. pyogenes (ATCC 51339) and 2 µg/mL (≈ 4.61 µM) with S. aureus (ATCC 29213).

For the compound `CCNC(=O)Nc1cc(Nc2ccccc2)c(C(=O)Nc2ccc(=O)n(C)c2)cn1` [Compound 99, 6-(3-ethylureido)-N-(1-methyl-6-oxo-1,6-dihydropyridin-3-yl)-4-(phenylamino)nicotinamide], the MIC was not above 1 µg/mL in the assay on S. pyogenes (ATCC 51339) and 16 µg/mL (≈ 39.4 µM) in the assay on S. aureus (ATCC 29213).

Turning to `CCNC(=O)Nc1cc(Nc2ccc(OC)cc2)c(C(=O)Nc2cccnc2)cn1` [Compound 14, 6-(3-Ethylureido)-4-(4-methaxyphenylamino)-N-(pyridin-3-yl)nicotinamide], the MIC in the assay with S. pyogenes (ATCC 51339) came to 2 µg/mL (≈ 4.92 µM); in the assay on S. aureus (ATCC 29213), 4 µg/mL (≈ 9.84 µM).

Turning to `CCNC(=O)Nc1cc(Nc2ccccc2)c(C(=O)Nc2ccc(CCC(N)=O)cc2)cn1` [Compound 118, N-(4-(3-amino-3-oxopropyl)phenyl)-6-(3-ethylureido)-4-(phenylamino)nicotinamide], the MIC with S. pyogenes (ATCC 51339) is not above 1 µg/mL; in the assay with S. aureus (ATCC 29213), 2 µg/mL (≈ 4.48 µM).

Regarding `CCNC(=O)Nc1cc(Nc2ccc(CO)cc2)c(C(=O)Nc2cccnc2)cn1` [Compound 128, 6-(3-ethylureido)-4-(4-(hydroxymethyl)phenylamino)-N-(pyridin-3-yl)nicotinamide], the MIC in the assay with S. pyogenes (ATCC 51339) is not above 1 µg/mL; in the assay with S. aureus (ATCC 29213), 8 µg/mL (≈ 19.7 µM).

Consider `CCNC(=O)Nc1cc(Nc2ccc(C(=O)OCC)cc2)c(C(=O)Nc2cccnc2)cn1` [Compound 15, Ethyl 4-(2-(3-ethylureido)-5-(pyridin-3-ylcarbamoyl)pyridin-4-ylamino)benzoate], for which the MIC in the assay on S. pyogenes (ATCC 51339) and with S. aureus (ATCC 29213) was not above 1 µg/mL in each case.

Turning to `CCNC(=O)Nc1cc(Nc2ccccc2)c(C(=O)Nc2ccc(CCC(=O)NC)cc2)cn1` [Compound 120, 6-(3-ethylureido)-N-(4-(3-(methylamino)-3-oxopropyl)phenyl)-4-(phenylamino)nicotinamide], the MIC with S. pyogenes (ATCC 51339) is not above 1 µg/mL; with S. aureus (ATCC 29213), 2 µg/mL (≈ 4.34 µM).

Consider `CCNC(=O)Nc1cc(Nc2ccccc2)c(C(=O)NCc2ccccn2)cn1` [Compound 52, 6-(3-ethylureido)-4-(phenylamino)-N-(pyridin-2-ylmethyl)nicotinamide], for which the values for the MIC in the assay on S. pyogenes (ATCC 51339) and in the assay with S. aureus (ATCC 29213) were 8 µg/mL (≈ 20.5 µM) and 32 µg/mL (≈ 82 µM), respectively.

With `CCNC(=O)Nc1cc(Nc2ccccc2)c(C(=O)Nc2cncc(OC)c2)cn1` [Compound 79, 6-(3-ethylureido)-N-(5-methoxypyridin-3-yl)-4-(phenylamino)nicotinamide], the MIC in the assay with S. pyogenes (ATCC 51339) and in the assay on S. aureus (ATCC 29213) was not above 1 µg/mL in each case.

Turning to `CCNC(=O)Nc1cc(Nc2ccccc2)c(C(=O)Nc2cccc(C(F)(F)F)c2)cn1` [Compound 48, 6-(3-ethylureido)-4-(phenylamino)-N-(3-(trifluoromethyl)phenyl)nicotinamide], the MIC was 8 µg/mL (≈ 18 µM) with S. pyogenes (ATCC 51339) and not above 1 µg/mL in the assay on S. aureus (ATCC 29213).

Regarding `CCNC(=O)Nc1cc(Nc2ccccc2)c(C(=O)Nc2ccc(N(C)C)nc2)cn1` [Compound 98, N-(6-(dimethylamino)pyridin-3-yl)-6-(3-ethylureido)-4-(phenylamino)nicotinamide], the MIC in the assay with S. pyogenes (ATCC 51339) and with S. aureus (ATCC 29213) was not above 1 µg/mL throughout.

Turning to `CCNC(=O)Nc1cc(Nc2ccccc2Cl)c(C(=O)Nc2cccnc2)cn1` [Compound 105, 4-(2-chlorophenylamino)-6-(3-ethylureido)-N-(pyridin-3-yl)nicotinamide], the MIC in the assay on S. pyogenes (ATCC 51339) and in the assay on S. aureus (ATCC 29213) was not above 1 µg/mL each time.
